Laboratory results as given in patent publication US20050026296A1, “Diagnostic method based on lipid measuring parameter modulations/effector quotient profiles” (priority 2001, published 2005).

System: leukocytes from the peripheral blood
Experiment: Release of prostaglandin E2 (PGE2) and peptide leukotrienes (pLT) from leukocytes after modulation, quantified by EIA
Format: cell-based, human
Conditions: for PGE2 (lipid measurement parameter A) in cell culture supernatant / pLT (lipid measurement parameter B) in cell culture supernatant: 100,000 cells/ml, 37° C., 30 minutes; for Standardized effector quotient (PGE/pLT) / Standardized modulation quotient PGE2 / Standardized modulation quotient pLT: divided by quotient of standard group
Procedure: Human leukocytes of the peripheral blood are separated from plasma with the aid of a dextran gradient, and adjusted to a defined cell count (100,000 cells/ml). Subsequently, the stimulation is effected by incubation of the cells, e.g. without or while adding arachidonic acid as modulating indicator substance, or anti-IgE as modulating effector for a defined time (30 minutes) at 37° C. in cell culture medium (e.g. RPMI 1640). After sedimentation of the cells by centrifugation for 5 minutes with 800×g at 4° C., the cell-free supernatant is collected and can be stored at −80° C. under nitrogen or argon, if desired. Afterwards, these measurement samples are transferred to a polystyrol plate coated with prostaglandin E2 or peptide leukotrienes, respectively, and incubated for 18 hours at 4° C. while adding an anti-prostaglandin-E2- or anti-peptide-leukotriene-antibody, respectively, (“competitive assay”). After a washing step, an incubation at 23° C. for 2 hours is performed with a biotinylated secondary antibody against the first antibody. After further washing, incubation follows with a streptavidin-conjugated peroxidase at 23° C. for 1 hour, and after further washing, a peroxidase substrate is added and the optical density is determined after about 30 minutes with a multichannel photometer. With the aid of the standard curves carried along, the measurement values can now be quantified and used for calculating the lipid measurement parameter stimulation/effector quotient profiles (an example for the calculation is given herein below).
1) Leukocytes from the peripheral blood of investigation group 1/standard group/investigation group 2 are obtained by blood withdrawal, followed by density gradient separation (3% dextran solution) for separating plasma and leukocytes. The leukocytes thus obtained are washed 3 times with phosphate buffered solution (PBS) and pooled/resuspended in cell culture medium ([…]), before they are adjusted to a cell count of 100,000 cells/ml (investigation group 2 only in this example; in principle, a second group is not necessary for this test, but serves here for a better understanding and as second comparison group, both to the standard group and to the investigation group).
2) The cells are divided into 3 equal parts (e.g. 3 times with 1 ml cell suspension with 100,000 cells/ml each) in reaction vessels (e.g. plastic or glass vessels).
A control solution is added to the first part-sample (=without further modulator, =zero or blank value; control solution is the solvent, in which the modulators are dissolved).
Arachidonic acid is added to the second part-sample (concentration: 10^−5 M; =indicator substance).
An anti-immunoglobulin-E solution is added to the third part-sample (e.g. 1:100 dilution of the anti-human-IgE-solution from DAKO, =modulator or modulating substance).
Exposition/incubation with the indicator substance arachidonic acid and the modulator anti-immunoglobulin-E-solution is started simultaneously at e.g. 37° C. for e.g. 30 minutes.
Thereafter, the cells are separated from the cell culture medium, e.g. by centrifugation at 4° C. with a sedimentation force of e.g. 800×g. The supernatant obtained from the 3 part-samples, separated for each part-sample, is then collected in suitable vessels (e.g. cryovessels) and stored until EIA analysis at e.g. −70° C.
3) The contents of prostaglandin E2 (PGE2) and peptide leukotrienes (pLT9) in the cell culture supernatants of the 3 part-samples are analysed and quantified by enzyme immunological assays (EIA) specific for PGE2 (=lipid measurement parameter A) and pLT (=lipid measurement parameter B), respectively.

`CCCCC/C=C\C/C=C\C/C=C\C/C=C\CCCC(=O)O` [arachidonic acid] was tested, and the “PGE2 (lipid measurement parameter A) in cell culture supernatant” value (“PGE2 … in cell culture supernatant” for short) (Investigation group 1 (I1)) was 4120 ± 236 pg/mL, the “pLT (lipid measurement parameter B) in cell culture supernatant” value (shortened to “pLT (lipid measurement parameter B)”) (Investigation group 1 (I1)) was 150±10.4 pg/ml and the “Effector quotient (PGE/pLT)” value (Investigation group 1 (i1)) was 27.5. The “Modulation quotient PGE2 (modulated value / zero value A0)” value (Investigation group 1 (i1)) was 11.8, the “Modulation quotient pLT (modulated value / zero value B0)” value (Investigation group 1 (i1)) was 1.3 and the “Standardized effector quotient (PGE/pLT)” value (Investigation group 1 (i1)) was 0.941. The “Standardized modulation quotient PGE2” value (Investigation group 1 (i1)) was 5.1, the “Standardized modulation quotient pLT” value (Investigation group 1 (i1)) was 0.21 and the “PGE2 … in cell culture supernatant” value (Investigation group 2 (I2)) was 3976 ± 245 pg/mL. The “pLT (lipid measurement parameter B)” value (Investigation group 2 (I2)) was 128 ± 10.4 pg/ml, the “Effector quotient (PGE/pLT)” value (Investigation group 2 (i2)) was 31.1 and the “Modulation quotient PGE2 (modulated value / zero value A0)” value (Investigation group 2 (i2)) was 1.8. The “Modulation quotient pLT (modulated value / zero value B0)” value (Investigation group 2 (i2)) was 2.4, the “Standardized effector quotient (PGE/pLT)” value (Investigation group 2 (i2)) was 1.065 and the “Standardized modulation quotient PGE2” value (Investigation group 2 (i2)) was 0.78. The “Standardized modulation quotient pLT” value (Investigation group 2 (i2)) was 0.38, the “PGE2 … in cell culture supernatant” value (Standard group (N)) was 4170 ± 275 pg/mL and the “pLT (lipid measurement parameter B)” value (Standard group (N)) was 143 ± 12.4 pg/ml. The “Effector quotient (PGE/pLT)” value (Standard group (n)) was 29.2, the “Modulation quotient PGE2 (modulated value / zero value A0)” value (Standard group (n)) was 2.3 and the “Modulation quotient pLT (modulated value / zero value B0)” value (Standard group (n)) was 6.2. The “Standardized effector quotient (PGE/pLT)” value (Standard group (n)) was 1 (0.9-1.1), the “Standardized modulation quotient PGE2” value (Standard group (n)) was 1 (0.8-1.2) and the “Standardized modulation quotient pLT” value (Standard group (n)) was 1 (0.5-1.2). For the same compound, the “induced synthesis of prostaglandin E2 compared with persons without pathological findings” value (analgesic intolerance) was “unstriking” and the “elevation of induced synthesis of peptide leukotriene compared with persons without pathological findings” value (analgesic intolerance, unstriking to faintly elevated) was 0-40%.
